# US20100113276A1, “USE OF N2-PHENYLAMIDINES AS HERBICIDES” (BAYER CROPSCIENCE AG, priority 2007, published 2010)
# Assay: log P by HPLC on reversed-phase column (C18), EEC Directive 79/831 Annex V.A8
# Type: physicochemical
# Conditions: C18, 40° C.; for log p HCO2H: aqueous formic acid / acetonitrile; for log p H3PO4: 0.1% aqueous phosphoric acid / acetonitrile
# Experimental: The log P data were determined in accordance with the EEC Directive 79/831 Annex V.A8 by HPLC (High Performance Liquid Chromatography) on a reversed-phase column (C18) using the following methods: […]
# Calibration was carried out with the help of unbranched alkan-2-ones (consisting of 3 to 13 or 16 carbon atoms) with known logP values (determination of the logP values via the retention times by means of linear interpolation between two subsequent alkanones).
SMILES,log p acidic,log p HCO2H,log p neutral,log p H3PO4
CCN(C)C=Nc1cc(Cl)c(Oc2cc(C(C)(C)C)nn2C)cc1C [compound 596],1.84,1.84,4.41,–
Cc1cc(Oc2cc(C(C)(C)C)nn2C)c(Cl)cc1N=CN1CCCCC1 [compound 600],1.90,–,5.34,–
CCN(C)C=Nc1cc(OC)c(Oc2ccc(Cl)c(C(F)(F)F)c2)cc1C [compound 721],2.21,–,–,–
Cc1cc(Oc2cc(F)cc(C(F)(F)F)c2)c(C)cc1N=CN1CCCCC1 [compound 373],2.29,–,–,–
Cc1cc(-c2cccc(C(C)C)c2)c(C(F)F)cc1N=CN1CCCCC1 [compound 799],2.6,–,–,–
CCN(C)C=Nc1cc(C)c(Oc2ccc(Cl)c(C(F)(F)F)c2)cc1C [compound 34],2.38,–,–,–
CCN(C)C=Nc1cc(OC)c(Oc2ccc(Cl)c(C(C)(C)C)c2)cc1C [compound 733],2.75,–,–,–
Cc1cc(Oc2nc(C(C)(C)C)ns2)c(Cl)cc1N=CN1CCCCC1 [compound 610],2.21,2.21,–,–
CN(C)C=Nc1cc(Cl)c(Oc2ccc(Cl)c(C(C)(C)C)c2)cc1Cl [compound 810],–,2.94,6.13,2.9
Cc1cc(Oc2cc(Cl)cc(C(F)(F)F)c2)c(Cl)cc1N=CN1CCCCC1 [compound 568],2.86,–,–,–
Cc1cc(Oc2cc(F)cc(Br)c2)c(C)cc1N=CN(C)C [compound 1],2.17,–,5.11,–
CCN(C)C=Nc1cc(Cl)c(Oc2cc(C(C)C)nn2C)cc1C [compound 602],1.65,–,4.04,–
Cc1cc(Oc2ccc(Cl)c(C(C)C)c2)c(Cl)cc1N=CN(C)C1CC1 [compound 402],–,2.96,6.60,–
CCCN(C)C=Nc1cc(Cl)c(Oc2cc(C(C)(C)C)nn2C)cc1C [compound 597],1.90,–,5.09,–
CCN(C)C=Nc1cc(C)c(C=Cc2ccccc2C)cc1C [compound 270],–,2.21,–,–
Cc1cc(Oc2ccc(F)c(C(F)(F)F)c2)c(C)cc1N=CN(C)C [compound 365],–,2.37,–,–
CCN(C)C=Nc1cc(C)c(Oc2cc(Cl)cc(C(C)C)n2)cc1C [compound 407],2.18,–,–,–
CCN(C)C=Nc1cc(C)c(Oc2ccc(Cl)c(C(C)(C)C)c2)cc1C [compound 50],2.69,–,5.96,–
CCN(C)C=Nc1cc(Cl)c(Oc2nc(C(C)(C)C)ns2)cc1C [compound 608],2.01,2.01,5.31,–
CCN(C)C=Nc1cc(C(F)(F)F)c(Oc2cccc(C(C)(C)C)c2)cc1C [compound 761],2.94,–,–,–

SMILES,log p acidic,log p HCO2H,log p neutral,log p H3PO4
CCCN(C)C=Nc1cc(Cl)c(Oc2ccc(Cl)c(C(C)(C)C)c2)cc1C [compound 578],3.06,–,–,–
CCC(C)N(C)C=Nc1cc(Cl)c(Oc2ccc(Cl)c(C(C)(C)C)c2)cc1C (centres unmarked) [compound 579],3.19,3.19,7.36,–
Cc1cc(Oc2cc(C(C)C)nn2C)c(Cl)cc1N=CN1CCCCC1C (centres unmarked) [compound 606],1.79,–,4.75,–
Cc1cc(-c2ccc(Cl)cc2C)c(C)cc1N=CN(C)C [compound 393],2.24,–,5.62,–
CCN(C)C=Nc1cc(F)c(-c2ccc(C(C)(C)C)cc2)cc1C [compound 669],2.38,–,–,–
CCN(C)C=Nc1cc(C)c(Oc2cccc(C(C)(CC)OC)c2)cc1C (centres unmarked) [compound 502],2.30,–,–,–
Cc1cc(Oc2nc(C3(Cl)CC3)ns2)c(Cl)cc1N=CN1CCCCC1 [compound 614],1.98,–,–,–
CCN(C)C=Nc1cc(C)c(Oc2nc(C(C)(C)C)c(Cl)s2)cc1C [compound 559],2.76,–,–,–
Cc1cc(-c2ccc(Cl)cc2)c(F)cc1N=CN(C)C [compound 663],–,–,–,2.04
CCN(C)C=Nc1cc(C)c(CCc2ccc(C(F)(F)F)cc2)cc1C [compound 250],–,2.45,–,–
CCN(C)C=Nc1cc(F)c(-c2ccc(Cl)cc2)cc1C [compound 664],–,–,–,2.13
CCCN(C)C=Nc1cc(Cl)c(Oc2cc(C(C)C)nn2C)cc1C [compound 603],1.78,–,4.52,–
CCN(C)C=Nc1cc(F)c(-c2nnc(C3CC3)s2)cc1C [compound 681],1.32,–,–,–
CCN(C)C=Nc1cc(C)c(-c2ccc(Cl)c(C)c2)cc1C [compound 398],2.27,–,5.59,–
CCCN(C)C=Nc1cc(Cl)c(Oc2ccc(Br)c(C(C)C)c2)cc1C [compound 590],2.93,–,7.01,–
Cc1cc(-c2ccc(C(C)(C)C)cc2)c(C)cc1N=CN(C)C [compound 445],2.71,–,5.74,–
CCCN(C)C=Nc1cc(Cl)c(Oc2ccc(Cl)c(CC)c2)cc1C [compound 584],–,2.84,6.54,–
Clc1cc(Oc2ccccc2)c(Cl)cc1N=CN1CCCCC1 [compound 804],–,2.12,5.09,2.03
CC(C)N(C)C=Nc1cc(Cl)c(Oc2cccc(C(C)(C)C)c2)cc1Cl [compound 807],–,2.82,6.13,2.7
CCN(C)C=Nc1cc(C)c(Oc2ccc(C#N)c(C(F)(F)F)c2)cc1C [compound 226],1.68,–,–,–

# Continued, values first:
log p acidic,log p HCO2H,log p neutral,log p H3PO4,SMILES
–,3.68,7.1,3.61,CC(C)(C)c1cc(Oc2cc(Cl)c(N=CN3CCCCC3)cc2C(F)(F)F)ccc1Cl [compound 946]
–,2.3,5.08,2.35,Cc1cc(N=CN(C)C)c(Cl)cc1Oc1ccc(Cl)c(C(F)(F)F)c1 [compound 892]
–,2.78,6.12,2.88,CCN(C)C=Nc1cc(C)c(Oc2ccc(Cl)c(C(C)C)c2)cc1Cl [compound 898]
–,2.44,5.49,2.51,CCN(C)C=Nc1cc(C)c(Oc2ccc(Cl)c(C(F)(F)F)c2)cc1Cl [compound 893]
–,2.79,6.42,3,Cc1cc(N=CN2CCCCC2)c(Cl)cc1Oc1cccc(C(C)(C)C)c1 [compound 873]
2.22,–,–,–,CCN(C)C=Nc1cc(F)c(-c2ccc(Cl)c(C(F)(F)F)c2)cc1F [compound 854]
–,3.25,7.04,3.36,Cc1cc(N=CN2CCCCC2)c(Cl)cc1Oc1ccc(Cl)c(C(C)(C)C)c1 [compound 906]
–,2.8,5.88,2.74,CC(C)N(C)C=Nc1cc(Cl)c(Oc2ccc(Cl)c(C(F)(F)F)c2)cc1Cl [compound 817]
–,2.8,6.54,2.98,CCN(C)C=Nc1cc(C)c(Oc2ccc(Cl)c(C(C)(C)C)c2)cc1Cl [compound 903]
–,2.98,5.74,2.87,CCN(C)C=Nc1cc(C(F)(F)F)c(Oc2ccc(Cl)c(C(F)(F)F)c2)cc1Cl [compound 948]
–,2.55,–,1.73,Cc1cc(N=CN(C)C(C)C)c(Cl)cc1Oc1ccc(Cl)c(C(F)(F)F)c1 [compound 894]
2.71,–,5.74,–,CC(C)(C)c1cc(Oc2cc(F)c(N=CN3CCCCC3)cc2F)ccc1Cl [compound 836]
–,2.69,5.86,2.87,CCN(C)C=Nc1cc(C)c(Oc2ccc(C(C)(C)C)cc2)cc1Cl [compound 884]
1.89,–,–,–,CCN(C)C=Nc1cc(OC)c(-c2ccc(C)cc2)cc1OC [compound 999]
–,3.11,7.36,–,COc1cc(Oc2ccc(Cl)c(C(C)(C)C)c2)c(OC)cc1N=CN(C)C [compound 981]
–,3.01,6.87,1.35,Cc1cc(N=CN(C)C(C)C)c(Cl)cc1Oc1ccc(Cl)c(C(C)(C)C)c1 [compound 904]
2.98,–,–,–,CCN(C)C=Nc1cc(Cl)c(Oc2cccc(C(C)(C)C)c2)cc1I [compound 862]
–,2.64,6.21,2.82,Cc1cc(N=CN2CCCCC2)c(Cl)cc1Oc1ccc(C(C)C)cc1 [compound 891]
–,3.31,6.81,3.35,CC(C)N(C)C=Nc1cc(Cl)c(Oc2ccc(Cl)c(C(C)(C)C)c2)cc1Cl [compound 812]
–,3.42,6.2,3.03,FC(F)(F)c1cc(Oc2cc(Cl)c(N=CN3CCCCC3)cc2C(F)(F)F)ccc1Cl [compound 951]
–,2.55,5.79,2.76,CCN(C)C=Nc1cc(C)c(Oc2cccc(C(C)(C)C)c2)cc1Cl [compound 870]
–,3.62,7.08,3.45,CC(C)(C)c1cc(Oc2cc(Cl)c(N=CN3CCCCC3)cc2Cl)ccc1Cl [compound 814]
–,2.38,5.51,2.56,CCN(C)C=Nc1cc(C)c(Oc2cccc(C(C)C)c2)cc1Cl [compound 875]
–,3.08,6,2.82,CC(C)N(C)C=Nc1cc(C(F)(F)F)c(Oc2ccc(Cl)c(C(F)(F)F)c2)cc1Cl [compound 949]
2.23,–,4.14,–,CCN(C)C=Nc1cc(OC)c(Oc2ccc(Cl)c(C(F)(F)F)c2)cc1OC [compound 986]
